Assay results from patent US12102631B2, “Quinolylnitrones for the treatment and prevention of a cerebral stroke or ischaemia” (ISQUAEMIA BIOTECH, S.L., priority 2018, dated 2024).

Columns and labels:
[1] = tested on: primary neuronal cultures from rat cerebral cortex; experiment: Neuroprotection (MTT cell viability) in primary neuronal cultures exposed to oxygen-glucose deprivation (OGD); format: cell-based; details: 24 h recovery after 4 h OGD, R24 h = 0%, control = 100%
Method: Primary neuronal cultures. Primary neuronal cultures from rat cerebral cortex were prepared as previously described.^54 All procedures associated with animal experiments were approved by the Ethics Committee of the Hospital Ramón y Cajal, Madrid (Spain). Cell suspensions from cerebral cortex were prepared from 16- to 17-day-old Sprague-Dawley rat embryos. Living cells in cell suspension were counted by trypan blue exclusion method. Cells were seeded on plastic multidishes precoated with 0.05 mg/mL poly-D-lysine at a density of 2.5×10^5 cells/cm^2 and were kept at 37° C. in a 6.5% CO2 atmosphere in high glucose Dulbecco's medium supplemented with 15% heat-inactivated (56° C. for 30 min) foetal calf serum. After 24 h, cultured cells were […] to induce experimental ischemia.^23 Cultured cells were washed and placed in glucose-free Dulbecco's medium (bubbled with 95% N2/5% CO2 for 30 min), and maintained in a humidified hypoxia chamber equipped with an oxygen and carbon dioxide control unit (Biospherix) at 6.5% CO2 and <0.1% O2 in N2 at 37° C. Cells were exposed to OGD for a period of 4 h (OGD 4 h). At the end of the OGD period, culture medium was replaced with oxygenated serum-free medium, and cells were placed and maintained in the normoxic incubator for 24 h to recovery (R24 h). In the neuroprotection experiments, the compounds were added at the onset of recovery period. Control cultures in Dulbecco's medium containing glucose were kept in the normoxic incubator for the same period of time as the OGD, and then medium (Dulbecco's/Ham's F12, 1:1 [vol/vol], 5 mg/mL glucose, 2 mM L-glutamine, and 1 mM sodium pyruvate, and supplemented with 100 μg/mL transferrin, 100 μM putrescine, 20 nM progesterone, 30 nM sodium selenite and 5 μg/mL insulin). Here, 6-7 day old cultured neurons were used in the experiments, and contained 90% β-III-tubulin-positive mature neurons, as described previously.^55
Exposure of cell cultures to oxygen-glucose deprivation and treatments. Primary neuronal cultures were exposed to […]. Control experiments included the same amounts of vehicle (final concentration<0.5% ethanol). Nitrone 2 was used as reference compound for neuroprotection. The experimental procedures were blindly performed, assigning a random order to each assayed nitrone. Nitrones were analyzed independently four-eight times with different batch of cultures and each experiment was run in quadruplicate.
Cell viability assay. Cell viability was evaluated by quantification of living, metabolically active cells, as determined by a colorimetric assay using the photometric reduction of 3-(4,5-dimethylthiazol-2-yl)-2,5-diphenyl tetrazolium bromide (MTT) (Roche) to a blue formazan product. The assay of living, metabolically active cells was performed by incubating with 0.2 mg/mL MTT in the culture medium for 1.5 h in an incubator at 37° C. in a 6.5% CO2 atm. After the incubation period, cells were lysed with an equal volume of 10 mM HCl and 10% SDS overnight. Values were quantified by absorbance (test 595 nm, reference 690 nm). Decreased MTT activity denotes impairment of mitochondrial function and is considered to be an index of cell damage. Primary neuronal cultures were collected at times indicated for MTT determination.
Neuroprotection of compounds was evaluated by a cell viability assay. The neuroprotective effect of the compounds 5-32 was evaluated on primary neuronal cultures from cerebral cortex subjected to oxygen-glucose deprivation (OGD) to induce experimental ischemia. Afterwards, cultured neurons were placed and kept in normoxic and normoglycemic conditions to recovery. […]

[2] = Superoxide radical scavenging (hypoxanthine/xanthine oxidase system); format: biochemical; details: tested at 100 μM (0.1 mM)
Excerpt: 3.7. Superoxide radical scavenging activity. Superoxide anion radical (O2⋅−) is less toxic than hydroxyl radical, but still one of the most known harmful toxic ROS. In physiological conditions, superoxide dismutase catalyzes its conversion to H2O2, which is the precursor for the formation of hydroxyl radicals in the presence of iron ions.43 Superoxide anion radicals O2⋅− and H2O2 are ROS produced in vivo through a one-electron reduction process of O2. The evaluation of superoxide anion radical scavenging activity can be determined using assays involving non-enzymatic or enzymatic production of superoxide anions. In this assay, superoxide anion radicals were generated by a hypoxanthine and xanthine oxidase reaction system, and the O2⋅− scavenging activity (%) has been measured spectrophotometrically.

Row | Compound | viability at 10 µM ([1]; Rattus norvegicus, 10 μM) [%] | viability at 100 µM ([1]; Rattus norvegicus, 100 μM) [%] | viability at 250 µM ([1]; Rattus norvegicus) [%] | viability at 1 µM ([1]; Rattus norvegicus, 1 μM) [%] | further results
1 | Cc1ccc2[nH]c(=O)c(/C=[N+](\[O-])C(C)(C)C)cc2c1 [Compound 17, (Z)—N-tert-Butyl-1-(6-methyl-2-oxo-1,2-dihydroquinolin-3-yl)methanimine oxide] | 20.2 ± 1.1 | 17.6 ± 1.35 | 10.9 ± 0.88 | – | –
2 | Cc1ccc2ncc(/C=[N+](\[O-])Cc3ccccc3)cc2c1 [Compound 12, (Z)—N-Benzyl-1-(6-methylquinolin-3-yl)methanimine oxide] | 37.7 ± 0.66 | 34.4 ± 0.67 | 34.11 ± 0.15 | 37 ± 0.05 | –
3 | [O-]/[N+](=C\c1cc2ccccc2nc1Cl)Cc1ccccc1 [Compound 20, (Z)—N-Benzyl-1-(2-chloroquinolin-3-yl)methanimine oxide] | < 0 | < 0 | – | 32.8 ± 2.72 | –
4 | COc1nc2ccc(C)cc2cc1/C=[N+](\[O-])Cc1ccccc1 [Compound 14, (Z)—N-Benzyl-1-(2-methoxy-6-methylquinolin-3-yl)methanimine oxide] | 23.7 ± 1.77 | < 0 | – | 17.6 ± 1.11 | –
5 | [O-]/[N+](=C\c1cc2cc(O)ccc2nc1Cl)Cc1ccccc1 [Compound 25, (Z)—N-Benzyl-1-(2-chloro-6-hydroxyquinolin-3-yl)methanimine oxide] | < 0 | < 0 | < 0 | 25.15 ± 0.14 | –
6 | [O-]/[N+](=C\c1cc2cc(Cl)ccc2nc1Cl)Cc1ccccc1 [Compound 26, (Z)—N-Benzyl-1-(2,6-dichloroquinolin-3-yl)methanimine oxide] | 37.7 ± 0.52 | < 0 | 0.35 ± 0.02 | 41.72 ± 0.3 | –
7 | COc1nc2ccccc2cc1/C=[N+](\[O-])Cc1ccccc1 [Compound 21, (Z)—N-Benzyl-1-(2-methoxyquinolin-3-yl)methanimine oxide] | 24.2 ± 0.36 | < 0 | – | < 0 | –
8 | CC(C)(C)/[N+]([O-])=C/c1cc2ccccc2n2nnnc12 [Compound 31, (Z)—N-tert-Butyl-1-(tetrazolo[1,5-a]quinolin-4-yl)methanimine oxide] | 9.84 ± 0.65 | 5.83 ± 0.56 | – | 7.64 ± 0.14 | –
9 | Cc1ccc2[nH]c(=O)c(/C=[N+](\[O-])Cc3ccccc3)cc2c1 [Compound 13, (Z)—N-Benzyl-1-(6-methyl-2-oxo-1,2-dihydroquinolin-3-yl)methanimine oxide] | 35.9 ± 1.46 | 42 ± 1.86 | 29.8 ± 1.25 | – | –
10 | Cc1ccc2nc(N(C)C)c(/C=[N+](\[O-])Cc3ccccc3)cc2c1 [Compound 16, (Z)—N-Benzyl-1-(2-(dimethylamino)-6-methylquinolin-3-yl)methanimine oxide] | 34.3 ± 0.59 | < 0 | < 0 | 12.9 ± 0.34 | –
11 | COc1ccc(OC)c2nc(Cl)c(/C=[N+](\[O-])Cc3ccccc3)cc12 [Compound 28, (Z)—N-Benzyl-1-(2-chloro-5,8-dimethoxyquinolin-3-yl)methanimine oxide] | 38.6 ± 0.55 | 44.27 ± 0.39 | – | 35.1 ± 0.84 | –
12 | COc1ccc2cc(/C=[N+](\[O-])Cc3ccccc3)c(Cl)nc2c1 [Compound 27, (Z)—N-Benzyl-1-(2-chloro-7-methoxyquinolin-3-yl)methanimine oxide] | 28 ± 1.15 | 19.4 ± 1.51 | – | 26.6 ± 0.37 | –
13 | O=C(O)/C=C/c1ccc(O)c(O)c1 [Caffeic acid, caffeic acid, reference compound] | – | – | – | – | O2*− (%) [2]: 15%
14 | CNc1nc2ccc(C)cc2cc1/C=[N+](\[O-])Cc1ccccc1 [Compound 15, (Z)—N-Benzyl-1-(6-methyl-2-(methylamino)quinolin-3-yl)methanimine oxide] | < 0 | – | – | 8.5 ± 0.18 | viability at 5 µM ([1]; Rattus norvegicus, 5 μM): 1.57 ± 0.03%
15 | Cc1ccc2nc(Cl)c(/C=[N+](\[O-])c3ccccc3)cc2c1 [Compound 11, (Z)-1-(2-Chloro-6-methylquinolin-3-yl)-N-phenylmethanimine oxide] | 36.5 ± 1 | < 0 | 1 ± 0.07 | 21.1 ± 0.31 | –
16 | Cc1ccc2nc(Cl)c(/C=[N+](\[O-])Cc3ccccc3)cc2c1 [Compound 4, (Z)—N-benzyl-1-(2-chloro-6-methylquinolin-3-yl)methanimine oxide, reference compound] | 55.4 ± 1.74 | – | – | – | viability at 50 µM ([1]; Rattus norvegicus, 50 μM): 56.8 ± 2.57%
17 | Cc1ccc2nc(Cl)c(C=NO)cc2c1 [Compound 6] | – | – | – | – | Neuroprotection (%) ([1]; 0.5 μM): 8.30 ± 0.62%; Neuroprotection (%) ([1]; 1 μM): 11.28 ± 1.32%; Neuroprotection (%) ([1]; 10 μM): <0%; Neuroprotection (%) ([1]; 100 μM): <0%
